Laboratory results as given in patent publication US20230167073A1 (Teijin Pharma Limited, priority 2020, published 2023).
Where two headings read alike, the source gives them in different places.

Biological target: T1, Human TRPC6 (Homo sapiens, UniProt Q9Y210)
T1 construct: expressed in transfected cells
T1 sequence (Q9Y210 1-931): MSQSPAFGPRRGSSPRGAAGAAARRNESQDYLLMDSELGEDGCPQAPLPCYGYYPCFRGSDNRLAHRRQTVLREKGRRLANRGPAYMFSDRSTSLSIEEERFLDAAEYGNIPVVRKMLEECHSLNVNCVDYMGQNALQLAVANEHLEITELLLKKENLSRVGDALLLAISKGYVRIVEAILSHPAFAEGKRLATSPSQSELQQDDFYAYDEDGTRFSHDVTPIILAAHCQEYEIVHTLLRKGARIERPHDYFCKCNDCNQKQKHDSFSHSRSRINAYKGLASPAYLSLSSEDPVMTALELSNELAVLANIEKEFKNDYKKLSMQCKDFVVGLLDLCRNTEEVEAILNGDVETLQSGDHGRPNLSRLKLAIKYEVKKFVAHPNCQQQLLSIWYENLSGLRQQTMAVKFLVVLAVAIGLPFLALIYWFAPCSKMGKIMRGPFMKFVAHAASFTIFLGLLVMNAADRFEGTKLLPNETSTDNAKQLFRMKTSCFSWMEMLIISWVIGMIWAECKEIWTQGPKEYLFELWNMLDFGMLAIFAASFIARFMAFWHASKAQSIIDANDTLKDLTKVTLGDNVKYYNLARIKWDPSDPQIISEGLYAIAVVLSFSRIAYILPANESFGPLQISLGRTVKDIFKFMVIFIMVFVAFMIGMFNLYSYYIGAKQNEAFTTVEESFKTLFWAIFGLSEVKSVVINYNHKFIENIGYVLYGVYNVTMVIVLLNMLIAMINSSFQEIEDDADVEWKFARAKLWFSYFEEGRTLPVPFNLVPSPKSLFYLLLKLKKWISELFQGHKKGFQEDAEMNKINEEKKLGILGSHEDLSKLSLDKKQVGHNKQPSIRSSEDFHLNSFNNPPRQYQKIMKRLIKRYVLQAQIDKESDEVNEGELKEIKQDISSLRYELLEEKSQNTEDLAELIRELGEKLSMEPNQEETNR
Test: Evaluation of TRPC6 channel inhibitory activity (1), FLIPR Calcium 5 Assay Kit, OAG stimulation (Compound Nos. 1-1293)
Assay type: cell-based
Method in brief: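 Readout is pIC50 from four-parameter logistic fitting of inhibition of the OAG-evoked (30 μM final) fluorescence calcium signal. Human TRPC6 stable cells are dye-loaded with probenecid, and compound is applied 20 min ahead of agonist.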

[1] = Human TRPC6 stably-expressing cells, OAG 30 μM, FLIPR Calcium 5 Assay Kit, read-out: Inhibitory activity (pIC50 class) (converted)

IC50 [1] [nM] | SMILES | IC50 [nM]
> 1000 | CC(C)OCCN(C)c1cc(Oc2cc(C#N)ccc2-c2ncc(CCN)cn2)n(C)n1 [compound 863, 4-[5-(2-aminoethyl)pyrimidin-2-yl]-3-[2-methyl-5-[methyl(2-propan-2-yloxyethyl)amino]pyrazol-3-yl]oxybenzonitrile] | 
10 to 1000 | Cn1nc(C2CC2)cc1Oc1cc(C#N)ccc1-c1cc(CN)ccn1 [compound 443, 4-[4-(aminomethyl)pyridin-2-yl]-3-(5-cyclopropyl-2-methylpyrazol-3-yl)oxybenzonitrile] | 
> 1000 | Cc1nc(Oc2cc(C#N)ccc2-c2ccc3c(c2)CC(N)C3=O)cc(N2CCOCC2)n1 (stereo not drawn) [Compound 131, 4-(2-Amino-1-oxo-2,3-dihydroinden-5-yl)-3-(2-methyl-6-morpholin-4-ylpyrimidin-4-yl)oxybenzonitrile] | 
> 1000 | COCCOC(CN)c1ccc(-c2ccc(C#N)cc2Oc2cc(N3CCOCC3)nc(C)n2)cc1 (stereo not drawn) [Compound 64, 4-[4-[2-amino-1-(2-methoxyethoxy)ethyl]phenyl]-3-(2-methyl-6-morpholin-4-ylpyrimidin-4-yl)oxybenzonitrile] | 
10 to 1000 | Cc1nc(Oc2cc(C#N)ccc2-n2cc([C@@H](O)CN)cn2)cc(N2CCCC(C)(C)C2)n1 [Compound 235, 4-[4-[(1R)-2-amino-1 hydroxyethyl]pyrazol-1-yl]-3-[6-(3,3-dimethylpiperidin-1-yl)-2-methylpyrimidin-4-yl]oxybenzonitrile] | 
> 1000 | Cn1nc2c(c1Oc1cc(C#N)ccc1-c1ncc(CN)cn1)CCC2 [compound 678, 4-[5-(aminomethyl)pyrimidin-2-yl]-3-[(2-methyl-5,6-dihydro-4H-cyclopenta[c]pyrazol-3-yl)oxy]benzonitrile] | 
< 10 | Cc1cc(Oc2cc(C#N)ccc2-c2ccc([C@H](O)CN)cn2)cc(N2CCOC(C)(C)C2)n1 [compound 531, 4-[5-[(1S)-2-amino-1-hydroxyethyl]pyridin-2-yl]-3-[2-(2,2-dimethylmorpholin-4-yl)-6-methylpyridin-4-yl]oxybenzonitrile] | 
< 10 | CCCc1cc(Oc2cc(C#N)ccc2-c2ccc(CN)cn2)n(C)n1 [compound 361, 4-[5-(aminomethyl)pyridin-2-yl]-3-(2-methyl-5-propylpyrazol-3-yl)oxybenzonitrile] | 
< 10 | Cc1cc(Oc2cc(C#N)ccc2-c2ncc(CN)cn2)cc(N2CCOCC2)n1 [compound 328, 4-[5-(aminomethyl)pyrimidin-2-yl]-3-(2-methyl-6-morpholin-4-ylpyridin-4-yl)oxybenzonitrile] | 
> 1000 | Cc1sc(N2CCOCC2)nc1C(=O)c1cc(C#N)ccc1-c1ncc(CN)cn1 [compound 1069, 4-[5-(aminomethyl)pyrimidin-2-yl]-3-(5-methyl-2-morpholin-4-yl-1,3-thiazole-4-carbonyl)benzonitrile] | 
10 to 1000 | COc1ccccc1-c1cc(Oc2cc(C#N)ccc2-c2ccc(CCN)cc2)cnn1 [Compound 118, 4-[4-(2-aminoethyl)phenyl]-3-[6-(2-methoxypheny)pyridazin-4-yl]oxybenzonitrile] | 
< 10 | N#Cc1ccc(-c2ccc(CCN)cc2)c(Sc2cnnc(N3CCCC3)c2)c1 [compound 1241, 4-[4-(2-aminoethyl)phenyl]-3-(6-pyrrolidin-1-ylpyridazin-4-yl)sulfanylbenzonitrile] | 
< 10 | Cc1cc(Oc2cc(C#N)ccc2-c2ncc(CCN)cn2)cc(N2CCO[C@H](C(F)F)C2)n1 [compound 439, 4-[5-(2-aminoethyl)pyrimidin-2-yl]-3-[2-[(2S)-2-(difluoromethyl)morpholin-4-yl]-6-methylpyridin-4-yl]oxybenzonitrile] | 
 | Cc1nc(Oc2cc(C#N)ccc2-c2ccc(CC3(N)COC3)cn2)cc(N2C3CCC2CC3)n1 [Compound No. 670, 4-[5-[(3-Aminooxetan-3-yl)methyl]pyridin-2-yl]-3-[6-(7-azabicyclo[2.2.1]heptan-7-yl)-2-methylpyrimidin-4-yl]oxybenzonitrile] | < 10
10 to 1000 | Cn1nc(-c2ccccc2)cc1Oc1cc(C#N)ccc1-c1ccc(C(F)(F)CN)cn1 [compound 308, 4-[5-(2-amino-1,1-difluoroethyl)pyridin-2-yl]-3-(2-methyl-5-phenylpyrazol-3-yl)oxybenzonitrile] | 
10 to 1000 | Cc1nc(Oc2cc(C#N)ccc2-c2ccc(C(C)(O)CN)cc2)cc(N2CCOCC2)n1 (stereo not drawn) [Compound 68, 4-[4-(1-amino-2-hydroxypropan-2-yl)phenyl]-3-(2-methyl-6-morpholin-4-ylpyrimidin-4-yl)oxybenzonitrile] | 
< 10 | Cn1nc(N2CCCCC2)cc1Oc1cc(C#N)ccc1-c1ncc(CN)cn1 [compound 624, 4-[5-(aminomethyl)pyrimidin-2-yl]-3-(2-methyl-5-piperidin-1-ylpyrazol-3-yl)oxybenzonitrile] | 
10 to 1000 | Cn1nc(N2CCOCC2)cc1Oc1cc(F)ccc1-c1ncc(CCN)cn1 [compound 973, 2-[2-[4-fluoro-2-(2-methyl-5-morpholin-4-ylpyrazol-3-yl)oxyphenyl]pyrimidin-5-yl]ethanamine] | 
> 1000 | Cc1cc(Oc2cc(C#N)ccc2-c2ccc([C@H](O)CN)cn2)cc(OCCOC(C)C)n1 [compound 479, 4-[5-[(1S)-2-amino-1-hydroxyethyl]pyridin-2-yl]-3-[2-methyl-6-(2-propan-2-yloxyethoxy)pyridin-4-yl]oxybenzonitrile] | 
< 10 | Cn1nc(N2CCOCC2)cc1C(=O)c1cc(C#N)ccc1-c1ncc(CN)cn1 [Compound No. 1028, 4-[5-(Aminomethyl)pyrimidin-2-yl]-3-(2-methyl-5-morpholin-4-ylpyrazole-3-carbonyl)benzonitrile] | 
10 to 1000 | N#Cc1ccc(-c2ccc(CCN)cc2)c(Oc2cnnc(-c3ccccn3)c2)c1 [Compound 114, 4-[4-(2-aminoethyl)phenyl]-3-(6-pyridin-2-ylpyridazin-4-yl)oxybenzonitrile] | 
10 to 1000 | Cc1nc(Oc2cc(C#N)ccc2-c2ccc([C@H](O)CN)cn2)cc(-c2nccs2)n1 [compound 603, 4-[5-[(1S)-2-amino-1-hydroxyethyl]pyridin-2-yl]-3-[2-methyl-6-(1,3-thiazol-2-yl)pyrimidin-4-yl]oxybenzonitrile] | 
< 10 | CC(C)N(C)c1cc(Oc2cc(C#N)ccc2-c2ncc(CCN)cn2)n(C)n1 [compound 775, 4-[5-(2-aminoethyl)pyrimidin-2-yl]-3-[2-methyl-5-[methyl(propan-2-yl)amino]pyrazol-3-yl]oxybenzonitrile] | 
> 1000 | Cc1nc(Oc2cc(C#N)ccc2-n2cc(N3CCNCCC3=O)cn2)cc(C2CCCC2)n1 [Compound 210, 3-(6-cyclopentyl-2-methylpyrimidin-4-yl)oxy-4-[4-(7-oxo-1,4-diazepan-1-yl)pyrazol-1-yl]benzonitrile] | 
< 10 | CC(C)c1cc(Oc2cc(C#N)ccc2-c2ncc(CN)cn2)n(C)n1 [compound 364, 4-[5-(aminomethyl)pyrimidin-2-yl]-3-(2-methyl-5-propan-2-ylpyrazol-3-yl)oxybenzonitrile] | 
< 10 | Cc1cc(Oc2cc(C#N)ccc2-c2ccc([C@H](O)CN)cn2)cc(N2CCOC[C@H]2C)n1 [compound 550, 4-[5-[(1S)-2-amino-1-hydroxyethyl]pyridin-2-yl]-3-[2-methyl-6-[(3R)-3-methylmorpholin-4-yl]pyridin-4-yl]oxybenzonitrile] | 
< 10 | N#Cc1ccc(-c2ccc(CCN)cc2)c(C(=O)c2nnc(N3CCOCC3)o2)c1 [compound 1086, 4-[4-(2-aminoethyl)phenyl]-3-(5-morpholin-4-yl-1,3,4-oxadiazole-2-carbonyl)benzonitrile] | 
> 1000 | N#Cc1ccc(-c2ncc(CN)cn2)c(C(=O)c2nnc(N3CCOCC3)o2)c1 [compound 1090, 4-[5-(aminomethyl)pyrimidin-2-yl]-3-(5-morpholin-4-yl-1,3,4-oxadiazole-2-carbonyl)benzonitrile] | 
< 10 | Cc1cc(Oc2cc(C#N)ccc2-c2ccc(CN)cn2)cc(N2CCOCC2)n1 [compound 329, 4-[5-(aminomethyl)pyridin-2-yl]-3-(2-methyl-6-morpholin-4-ylpyridin-4-yl)oxybenzonitrile] | 
> 1000 | Cc1nc(COC(C)C)cn1Cc1cc(C#N)ccc1-c1ccc(CCN)cc1 [compound 1126, 4-[4-(2-aminoethyl)phenyl]-3-[[2-methyl-4-(propan-2-yloxymethyl)imidazol-1-yl]methyl]benzonitrile] | 
